According to patent US12600725B2 (Memorial Sloan-Kettering Cancer Center, priority 2013, dated 2026):

Experiments:
[1] = test system: Hsp70 induction in HEK293 cells; assay: Hsp70 induction in HA-TLR9 transfected HEK293 cells; assay type: cell-based, human; settings: 24 h
Procedure: Cell fractionation and immunoblotting. Cells were either treated with DMSO (vehicle) or indicated compounds for 24 hr and lysed in RIPA buffer (50 mM Tris-HCl, pH 7.4, 150 mM NaCl, 0.5% sodium deoxycholate and 0.5% NP40) supplemented with cocktail protease inhibitors (Roche) to produce whole cell lysates. Lysates for cytosol and membrane fractions were harvested using ProteoExtract Subcellular Proteome Extraction Kit (Calbiochem) following the manufacturer's instructions. Protein concentrations were determined using BCA kit (Pierce) according to the manufacturer's instructions. The protein lysates ([…]) were electrophoretically resolved by SDS-PAGE, transferred onto nitrocellulose membranes and probed with the indicated primary antibodies against: HER^2 (Zymed, 28004), Hsp70 (Stressgen, SPA-810), Grp94 (Stressgen, SPA-850), Hsp90α (Abcam, Ab2928), Hsp90β (StressMarq, SMC-107B), Grp78 (Cell Signaling, 3183), Raf-1 (Santa Cruz, sc-133), phospho-Raf-1 (Cell Signaling, 9421), MEK1/2 (Cell Signaling, 8727), phospho-MEK1/2 (Cell Signaling, 9154), ERK1/2 (Cell Signaling, 4695), phospho-ERK1/2 (Cell Signaling, 4370), AKT (Cell Signaling, 9272), GM130 (Cell Signaling, 2296), Flotillin 2 (Cell Signaling, 3436), Histone H4 (Cell Signaling, 2592), Histone H1 (Santa Cruz, sc-8030), Caspase 3 (Cell Signaling, 9665), cleaved PARP (Promega, G7341), a-tubulin (Sigma, T5168) and 3-actin (Sigma, A1978). After washing off the excess antibodies, the membranes were incubated with the corresponding horseradish peroxidase (HRP) conjugated secondary antibody. Blots were visualized by autoradiography using the Enhanced Chemiluminescence Detection System (GE Healthcare) according to manufacturer's instructions. […]
TLR^9-trafficking assay (Yang, Y. et al. Heat shock protein gp96 is a master chaperone for toll-like receptors and is important in the innate function of macrophages. Immunity 26, 215-26 (2007)). […] Fluorescence intensity was quantified using MetaMorph Microscopy Automation and Image Analysis Software (Molecular Devices Inc.) and normalized to the cell number.

PANC-1 cells = assay: Cell viability assessment (CellTiter-Glo); assay type: cell-based
[2] = test system: EGFR and its downstream signaling in HMEC cells; assay: Western blot of EGFR and downstream signaling in normal cells; assay type: cell-based, human; settings: 24 h
Procedure: For comparison, the agent was also tested in a normal cell line, human mammary epithelial cells (HMECs). […] Without wishing to be bound by any particular theory, it is believed that a Grp94 selective inhibitor may therefore have a better therapeutic index than a direct RTK modulator (i.e. TKI or antibody) because it will act on the RTK only in conditions of oncogenic overexpression (see EGFR in TNBC cell lines vs HMEC). […] Approximately half of cases of triple-negative breast cancer (TNBC) and inflammatory breast cancer (IBC) overexpress EGFR, nonetheless clinical trials testing EGFR inhibitors reported lack of or limited benefit (Masuda H. et al. Breast Cancer Res Treat. 2012 November; 136(2):331-45). Without wishing to be bound by any particular theory, it is believed that such ineffectiveness is due to a crosstalk between EGFR and c-Met or other RTKs, because strategies that knocked down EGFR either by siRNA or by mixtures of antibodies that induces robust degradation of EGFR, led to reduced viability of TNBC cells (Mueller et al., Breast Cancer Res. 2012 Jul. 12; 14(4):R^104; Ferraro et al., Proc Natl Acad Sci USA. 2013 Jan. 29; 110(5):1815-20. PMID:23319610). […] Protein concentrations were determined using BCA kit (Pierce) according to the manufacturer's instructions. […]

C2C12 cells = assay: Viability of C2C12 cells visualized by light microscopy; assay type: cell-based, mouse; settings: 24 h

CC(C)NCCCn1c(Sc2cc(Cl)cc(Cl)c2)nc2c(N)ncnc21 [PU-WS13]
Hsp70 induction [1]: fails to induce Hsp70 | effect on cell growth (PANC-1 cells): effectively inhibited the growth | effect on EGFR and its downstream signaling in normal cells [2]: does not affect EGFR and its downstream signaling | toxicity to C2C12 cells (C2C12 cells): not toxic
